Results: ChEMBL document CHEMBL5465560, “Selectivity Literature for EUbOPEN Chemogenomic Library” (2024)

Assays:
[1] = target: T1, Serine/threonine-protein kinase STK11 (Homo sapiens) (UniProt Q15831); experiment: Selectivity interaction (KinomeScan (DiscoverX)) EUB0000229b STK11; details: at 10 µM
T1 sequence (whole entry): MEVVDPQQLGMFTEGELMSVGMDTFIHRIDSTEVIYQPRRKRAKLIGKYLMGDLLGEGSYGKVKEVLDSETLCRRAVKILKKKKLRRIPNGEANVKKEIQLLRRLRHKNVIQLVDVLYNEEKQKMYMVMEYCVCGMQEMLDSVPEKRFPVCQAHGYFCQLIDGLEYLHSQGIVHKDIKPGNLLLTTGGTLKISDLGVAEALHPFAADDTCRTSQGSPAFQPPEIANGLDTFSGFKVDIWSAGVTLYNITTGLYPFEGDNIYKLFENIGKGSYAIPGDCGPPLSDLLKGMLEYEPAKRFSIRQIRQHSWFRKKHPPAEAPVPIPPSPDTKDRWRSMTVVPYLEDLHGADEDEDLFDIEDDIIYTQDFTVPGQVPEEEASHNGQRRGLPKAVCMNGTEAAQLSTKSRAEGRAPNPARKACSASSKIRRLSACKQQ

[2] = target: T2, Ephrin type-B receptor 3 (Homo sapiens) (UniProt P54753); experiment: Selectivity interaction (KinomeScan (DiscoverX)) EUB0000092b EPHB3; details: at 10 µM
T2 sequence (whole entry): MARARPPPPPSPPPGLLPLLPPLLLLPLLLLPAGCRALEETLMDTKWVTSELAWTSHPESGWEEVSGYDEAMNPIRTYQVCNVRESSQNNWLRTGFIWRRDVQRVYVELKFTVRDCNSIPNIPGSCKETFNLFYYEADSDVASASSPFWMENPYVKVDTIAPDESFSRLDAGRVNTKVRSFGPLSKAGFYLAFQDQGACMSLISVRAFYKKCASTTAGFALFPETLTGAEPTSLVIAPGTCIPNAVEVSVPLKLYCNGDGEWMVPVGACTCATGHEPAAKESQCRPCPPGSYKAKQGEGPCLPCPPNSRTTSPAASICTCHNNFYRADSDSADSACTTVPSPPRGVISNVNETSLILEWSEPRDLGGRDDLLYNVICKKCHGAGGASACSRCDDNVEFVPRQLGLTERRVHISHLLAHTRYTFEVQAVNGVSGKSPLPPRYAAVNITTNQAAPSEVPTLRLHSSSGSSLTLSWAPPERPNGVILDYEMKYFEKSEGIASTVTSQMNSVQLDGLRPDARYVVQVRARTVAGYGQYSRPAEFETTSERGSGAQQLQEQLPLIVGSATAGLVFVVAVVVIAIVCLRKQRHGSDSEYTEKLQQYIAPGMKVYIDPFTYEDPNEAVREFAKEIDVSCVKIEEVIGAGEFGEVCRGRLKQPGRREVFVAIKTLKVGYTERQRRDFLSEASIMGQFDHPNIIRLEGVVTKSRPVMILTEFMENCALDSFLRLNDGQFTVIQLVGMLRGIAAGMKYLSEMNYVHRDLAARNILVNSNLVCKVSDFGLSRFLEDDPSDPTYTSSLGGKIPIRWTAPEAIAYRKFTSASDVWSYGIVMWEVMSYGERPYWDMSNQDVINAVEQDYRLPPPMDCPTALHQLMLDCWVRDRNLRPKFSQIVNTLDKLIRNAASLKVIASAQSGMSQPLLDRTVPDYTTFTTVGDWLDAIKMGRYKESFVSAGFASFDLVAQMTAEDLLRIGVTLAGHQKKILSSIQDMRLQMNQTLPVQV

[3] = target: Fibroblast growth factor receptor 2 (Homo sapiens) (UniProt P21802); experiment: Selectivity interaction (KinomeScan (DiscoverX)) EUB0000666a FGFR2; details: at 10 µM
[4] = target: T3, Testis-specific serine/threonine-protein kinase 1 (Homo sapiens) (UniProt Q9BXA7); experiment: Selectivity interaction (KinomeScan (DiscoverX)) EUB0000666a TSSK1A; details: at 10 µM
T3 sequence (whole entry): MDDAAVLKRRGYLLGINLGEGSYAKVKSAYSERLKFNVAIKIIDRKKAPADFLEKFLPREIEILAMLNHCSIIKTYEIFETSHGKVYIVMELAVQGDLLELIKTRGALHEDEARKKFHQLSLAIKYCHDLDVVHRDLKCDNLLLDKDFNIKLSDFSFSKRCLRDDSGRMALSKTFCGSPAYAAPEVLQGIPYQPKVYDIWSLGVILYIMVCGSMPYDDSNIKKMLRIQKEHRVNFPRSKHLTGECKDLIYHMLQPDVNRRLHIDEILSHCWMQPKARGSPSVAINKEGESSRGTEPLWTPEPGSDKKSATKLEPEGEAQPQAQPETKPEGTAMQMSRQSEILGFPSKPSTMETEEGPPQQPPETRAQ

[5] = target: [Pyruvate dehydrogenase (acetyl-transferring)] kinase isozyme 1, mitochondrial (Homo sapiens, UniProt Q15118); experiment: Selectivity interaction (Kinase panel (Z-LYTE Assay)) EUB0001632a PDK1; details: at 10 µM
[6] = target: T4, Non-receptor tyrosine-protein kinase TNK1 (Homo sapiens) (UniProt Q13470); experiment: Selectivity interaction (KinomeScan (DiscoverX)) EUB0000045b TNK1
T4 sequence (whole entry): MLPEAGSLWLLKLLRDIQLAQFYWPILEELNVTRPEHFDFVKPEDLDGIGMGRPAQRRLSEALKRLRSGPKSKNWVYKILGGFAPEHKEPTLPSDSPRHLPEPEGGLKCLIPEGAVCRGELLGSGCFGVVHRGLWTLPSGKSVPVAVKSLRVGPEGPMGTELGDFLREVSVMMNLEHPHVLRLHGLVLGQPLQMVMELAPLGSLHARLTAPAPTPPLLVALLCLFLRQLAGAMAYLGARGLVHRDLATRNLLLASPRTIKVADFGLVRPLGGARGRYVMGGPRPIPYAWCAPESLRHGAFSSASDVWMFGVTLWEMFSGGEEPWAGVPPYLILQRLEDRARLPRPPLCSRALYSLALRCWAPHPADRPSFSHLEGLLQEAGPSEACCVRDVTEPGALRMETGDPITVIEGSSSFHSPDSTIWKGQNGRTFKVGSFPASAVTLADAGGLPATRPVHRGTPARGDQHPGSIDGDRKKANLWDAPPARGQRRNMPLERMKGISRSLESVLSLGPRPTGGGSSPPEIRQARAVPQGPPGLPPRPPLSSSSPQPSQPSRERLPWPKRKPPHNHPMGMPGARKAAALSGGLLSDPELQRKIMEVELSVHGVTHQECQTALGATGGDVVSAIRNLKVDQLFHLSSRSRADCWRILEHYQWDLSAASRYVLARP

[7] = target: Serine/threonine-protein kinase PRP4 homolog (Homo sapiens) (UniProt Q13523); experiment: Selectivity interaction (KinomeScan (DiscoverX)) EUB0000618a PRPF4; details: at 10 µM
[8] = target: Calcium/calmodulin-dependent protein kinase type II subunit delta (Homo sapiens) (UniProt Q13557); experiment: Selectivity interaction (Ambit KINOMEscan and KiNATiv profiling in Jurkat cells) EUB0000090b CAMK2D; assay type: cell-based; details: at 1 µM
[9] = Selectivity interaction (KinomeScan (DiscoverX)) EUB0001619a CDK2H; details: at 1 µM

Fibroblast growth factor receptor 2 (Homo sapiens), sequence (P21802 22-821 limits assumed): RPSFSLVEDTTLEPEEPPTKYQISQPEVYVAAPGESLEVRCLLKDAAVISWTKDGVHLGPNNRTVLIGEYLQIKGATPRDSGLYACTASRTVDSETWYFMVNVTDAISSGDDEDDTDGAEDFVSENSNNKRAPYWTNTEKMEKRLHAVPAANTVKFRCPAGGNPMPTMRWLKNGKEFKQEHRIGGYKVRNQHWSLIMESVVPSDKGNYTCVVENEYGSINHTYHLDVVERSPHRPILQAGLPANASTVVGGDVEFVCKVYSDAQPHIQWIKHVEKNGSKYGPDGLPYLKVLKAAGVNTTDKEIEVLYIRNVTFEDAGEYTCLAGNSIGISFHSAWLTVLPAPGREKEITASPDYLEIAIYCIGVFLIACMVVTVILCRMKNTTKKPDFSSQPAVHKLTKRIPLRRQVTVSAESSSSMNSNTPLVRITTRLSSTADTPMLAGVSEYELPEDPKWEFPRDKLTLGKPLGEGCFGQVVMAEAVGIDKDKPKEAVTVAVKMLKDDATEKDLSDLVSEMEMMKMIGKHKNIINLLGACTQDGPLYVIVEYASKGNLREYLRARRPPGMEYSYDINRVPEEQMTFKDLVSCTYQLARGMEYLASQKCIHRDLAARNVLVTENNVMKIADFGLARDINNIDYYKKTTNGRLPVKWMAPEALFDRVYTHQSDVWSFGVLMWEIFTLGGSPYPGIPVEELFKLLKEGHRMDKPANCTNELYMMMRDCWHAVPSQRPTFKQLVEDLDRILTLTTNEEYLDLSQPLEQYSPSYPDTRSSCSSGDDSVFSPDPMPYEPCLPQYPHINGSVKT
Calcium/calmodulin-dependent protein kinase type II subunit delta (Homo sapiens), sequence (Q13557 whole entry): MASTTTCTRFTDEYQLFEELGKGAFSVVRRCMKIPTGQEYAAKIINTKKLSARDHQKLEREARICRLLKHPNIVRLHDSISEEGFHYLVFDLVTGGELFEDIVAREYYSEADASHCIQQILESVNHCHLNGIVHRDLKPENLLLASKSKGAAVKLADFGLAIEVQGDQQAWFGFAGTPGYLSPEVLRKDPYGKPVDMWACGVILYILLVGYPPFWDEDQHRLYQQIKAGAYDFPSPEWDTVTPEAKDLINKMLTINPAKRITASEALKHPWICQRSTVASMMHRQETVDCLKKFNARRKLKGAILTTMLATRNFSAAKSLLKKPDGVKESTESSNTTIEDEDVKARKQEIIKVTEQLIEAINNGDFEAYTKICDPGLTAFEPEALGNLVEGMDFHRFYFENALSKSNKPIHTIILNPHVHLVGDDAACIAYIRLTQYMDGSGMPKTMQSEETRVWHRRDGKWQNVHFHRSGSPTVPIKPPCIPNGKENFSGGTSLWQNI
Serine/threonine-protein kinase PRP4 homolog (Homo sapiens), sequence (Q13523 whole entry): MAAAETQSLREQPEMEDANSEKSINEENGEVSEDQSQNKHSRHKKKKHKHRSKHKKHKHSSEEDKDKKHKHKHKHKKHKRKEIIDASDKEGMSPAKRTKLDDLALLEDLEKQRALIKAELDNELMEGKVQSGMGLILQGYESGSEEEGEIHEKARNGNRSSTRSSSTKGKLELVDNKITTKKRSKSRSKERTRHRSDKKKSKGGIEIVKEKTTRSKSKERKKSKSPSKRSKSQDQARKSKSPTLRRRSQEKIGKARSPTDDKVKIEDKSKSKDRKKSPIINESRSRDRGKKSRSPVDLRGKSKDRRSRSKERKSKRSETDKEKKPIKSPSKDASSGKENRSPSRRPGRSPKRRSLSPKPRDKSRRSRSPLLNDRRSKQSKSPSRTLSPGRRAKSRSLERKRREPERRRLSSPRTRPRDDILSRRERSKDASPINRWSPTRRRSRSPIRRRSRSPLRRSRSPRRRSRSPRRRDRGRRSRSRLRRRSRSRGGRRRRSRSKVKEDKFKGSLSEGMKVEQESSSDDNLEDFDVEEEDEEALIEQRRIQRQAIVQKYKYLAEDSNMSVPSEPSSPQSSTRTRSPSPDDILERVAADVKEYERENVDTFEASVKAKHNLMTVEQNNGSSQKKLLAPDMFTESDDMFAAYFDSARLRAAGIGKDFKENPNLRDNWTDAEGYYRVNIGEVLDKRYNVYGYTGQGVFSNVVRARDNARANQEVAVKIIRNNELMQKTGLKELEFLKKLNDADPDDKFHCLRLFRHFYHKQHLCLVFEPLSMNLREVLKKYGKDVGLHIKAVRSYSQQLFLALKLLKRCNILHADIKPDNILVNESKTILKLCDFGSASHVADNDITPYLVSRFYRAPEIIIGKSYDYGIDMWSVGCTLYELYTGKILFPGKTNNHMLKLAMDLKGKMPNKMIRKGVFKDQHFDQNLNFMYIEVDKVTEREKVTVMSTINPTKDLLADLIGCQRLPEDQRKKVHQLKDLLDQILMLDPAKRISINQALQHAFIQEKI

COc1cc(N(C)c2ccnc3ccc(C(F)(F)F)cc23)cc(OC)c1OC
% binding [1]: 77%

CCC(=O)N1CCN(c2ccc(-n3c(=O)ccc4cnc5ccc(-c6cnc7ccccc7c6)cc5c43)cc2C(F)(F)F)CC1
% of control [2]: 85%

O=C(NOC[C@H](O)CO)c1ccc(F)c(F)c1Nc1ccc(I)cc1F
% of control [3]: 100%
% of control [4]: 100%

Cn1cc(-n2cnc3c(NCc4nc5cc(Cl)c(Cl)cc5[nH]4)nc(N4CCOCC4)nc32)cn1
% of control [5]: -4.24%

C=CC(=O)Nc1cc(-n2c(=O)ccc3cnc4ccc(-c5ccc(NS(C)(=O)=O)cc5)cc4c32)ccc1C
% of control ([6]; at 1 µM): 100%
% of control ([6]; at 10 µM): 100%

O[C@H]1CC[C@H](Nc2ncc3nc(Nc4c(F)cc(F)cc4F)n([C@H]4CCOC4)c3n2)CC1
% of control [7]: 100%

CN(C)C/C=C/C(=O)Nc1ccc(C(=O)N2CCCC(Nc3ncc(Cl)c(-c4c[nH]c5ccccc45)n3)C2)cc1 (stereo not given)
% of control [8]: 88%

N#Cc1cccc(-c2c[nH]c3ncnc(N4CCOCC4)c23)c1
% of control [9]: 100%
